The text below walks through data of article PMC6754304 (Cell, 2019).

This test concerns the target S. cerevisiae HSP90 (HSP82) (Saccharomyces cerevisiae, UniProt P02829).

Chain of S. cerevisiae HSP90 (HSP82) (P02829 whole entry): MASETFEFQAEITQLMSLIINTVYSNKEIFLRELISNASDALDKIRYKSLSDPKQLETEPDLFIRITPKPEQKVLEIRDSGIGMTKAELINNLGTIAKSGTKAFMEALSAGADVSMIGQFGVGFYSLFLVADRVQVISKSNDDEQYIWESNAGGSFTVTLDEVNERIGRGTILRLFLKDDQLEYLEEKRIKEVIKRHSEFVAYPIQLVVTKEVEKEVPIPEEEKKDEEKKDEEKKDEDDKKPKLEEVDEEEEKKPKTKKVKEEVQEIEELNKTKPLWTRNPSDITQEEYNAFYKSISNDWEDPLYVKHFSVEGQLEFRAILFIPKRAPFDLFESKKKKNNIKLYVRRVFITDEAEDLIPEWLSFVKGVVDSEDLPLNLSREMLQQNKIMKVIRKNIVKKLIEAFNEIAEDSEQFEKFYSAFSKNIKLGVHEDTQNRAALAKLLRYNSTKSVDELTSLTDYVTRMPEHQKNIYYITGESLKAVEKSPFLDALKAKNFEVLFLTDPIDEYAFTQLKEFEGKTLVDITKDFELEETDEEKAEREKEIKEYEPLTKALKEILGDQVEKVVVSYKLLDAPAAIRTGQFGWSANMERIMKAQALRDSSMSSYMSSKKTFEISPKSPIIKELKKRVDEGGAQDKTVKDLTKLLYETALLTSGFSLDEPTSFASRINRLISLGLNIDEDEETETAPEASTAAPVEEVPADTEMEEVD

`Nc1ncnc2c1ncn2[C@@H]1O[C@H](COP(=O)(O)OP(=O)(O)OP(=O)(O)O)[C@@H](O)[C@H]1O` [ATP]: the ATPase activity entry is “assayed by measuring free phosphate release from ATP using the Malachite Green method”.
